Test results from ChEMBL document CHEMBL4665648, “Potent and selective inhibitors of receptor-interacting protein kinase 1 that lack an aromatic back pocket group” (Bioorg Med Chem Lett, 2019).

Experiments:
[1] = molecular target: Protein-tyrosine kinase 6 (Homo sapiens) (UniProt Q13882); test: Inhibition of recombinant human His-tagged full length BRK expressed in baculovirus expression system using Tyr 01 as substrate at 10 uM incubated for 60 mins by Z'-Lyte assay relative to control
[2] = molecular target: STE20-like serine/threonine-protein kinase (Homo sapiens) (UniProt Q9H2G2); test: Inhibition of tracer 236 binding to recombinant human GST-tagged full length SLK expressed in baculovirus expression system at 10 uM incubated for 60 mins by Lanthascreen assay relative to control
[3] = molecular target: Ephrin type-A receptor 3 (Homo sapiens) (UniProt P29320); test: Inhibition of tracer 236 binding to recombinant human His-tagged EPHA3 (569 to 976 residues) expressed in baculovirus expression system at 10 uM incubated for 60 mins by Lanthascreen assay relative to control
[4] = molecular target: Proto-oncogene tyrosine-protein kinase Src (Homo sapiens) (UniProt P12931); test: Inhibition of recombinant human C-terminal His-tagged full length SRC expressed in baculovirus expression system using Tyr 02 as substrate at 10 uM incubated for 60 mins by Z'-Lyte assay relative to control
[5] = molecular target: Dual specificity protein kinase CLK1 (Homo sapiens) (UniProt P49759); test: Inhibition of recombinant human GST-tagged CLK1 (129 to 484 residues) expressed in Escherichia coli expression system using Ser/Thr 09 as substrate at 10 uM incubated for 60 mins by Z'-Lyte assay relative to control
[6] = molecular target: Mitogen-activated protein kinase 1 (Homo sapiens) (UniProt P28482); test: Inhibition of recombinant human GST-tagged full length ERK2 expressed in baculovirus expression system using Ser/Thr 03 as substrate at 10 uM incubated for 60 mins by Z'-Lyte assay relative to control
[7] = molecular target: Muscle, skeletal receptor tyrosine-protein kinase (Homo sapiens) (UniProt O15146); test: Inhibition of recombinant human GST-tagged MUSK (519 to 869 residues) expressed in baculovirus expression system using Tyr 04 as substrate at 10 uM incubated for 60 mins by Z'-lyte assay relative to control
[8] = molecular target: Mitogen-activated protein kinase kinase kinase 2 (Homo sapiens) (UniProt Q9Y2U5); test: Inhibition of tracer 236 binding to recombinant human GST-tagged full length MEKK2 expressed in baculovirus expression system at 10 uM incubated for 60 mins by Lanthascreen assay relative to control
[9] = molecular target: Activin receptor type-1B (Homo sapiens) (UniProt P36896); test: Inhibition of recombinant human GST-tagged ACVR1B (150 to 505 residues) expressed in baculovirus expression system using Ser/Thr 16 as substrate at 10 uM incubated for 60 mins by Z'-Lyte assay relative to control
[10] = molecular target: T1, Receptor-interacting serine/threonine-protein kinase 1 (Homo sapiens, UniProt Q13546); test: Inhibition of recombinant human His/GST-tagged RIPK1 (2 to 257 residues) expressed in insect expression system incubated for 2 hrs by fluorescence polarization assay; conditions: read-out: Ki(app)
T1 sequence (Q13546 whole entry): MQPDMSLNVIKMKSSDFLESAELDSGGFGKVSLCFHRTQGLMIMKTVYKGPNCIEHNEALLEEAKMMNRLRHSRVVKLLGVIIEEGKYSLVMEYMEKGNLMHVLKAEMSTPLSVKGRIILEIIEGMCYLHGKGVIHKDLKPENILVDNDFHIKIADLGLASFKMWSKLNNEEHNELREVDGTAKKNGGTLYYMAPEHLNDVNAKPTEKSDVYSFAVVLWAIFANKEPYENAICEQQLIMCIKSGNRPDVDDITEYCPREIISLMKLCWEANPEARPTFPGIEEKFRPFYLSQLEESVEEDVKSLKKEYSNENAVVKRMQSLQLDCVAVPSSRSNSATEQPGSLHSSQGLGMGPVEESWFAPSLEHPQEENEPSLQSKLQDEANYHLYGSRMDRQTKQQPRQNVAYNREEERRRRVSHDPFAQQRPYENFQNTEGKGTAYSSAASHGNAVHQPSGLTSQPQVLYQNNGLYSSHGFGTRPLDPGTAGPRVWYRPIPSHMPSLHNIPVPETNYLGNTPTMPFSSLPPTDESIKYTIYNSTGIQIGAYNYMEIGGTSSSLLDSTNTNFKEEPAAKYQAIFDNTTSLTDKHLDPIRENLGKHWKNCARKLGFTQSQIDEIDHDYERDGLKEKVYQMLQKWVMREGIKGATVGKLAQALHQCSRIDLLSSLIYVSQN

[11] = molecular target: Dual specificity protein kinase CLK3 (Homo sapiens) (UniProt P49761); test: Inhibition of recombinant human GST-tagged full length CLK3 expressed in baculovirus expression system using Ser/Thr 18 as substrate at 10 uM incubated for 60 mins by Z'-Lyte assay relative to control
[12] = molecular target: Serine/threonine-protein kinase Chk1 (Homo sapiens) (UniProt O14757); test: Inhibition of recombinant human His-tagged full length CHK1 expressed in baculovirus expression system using Ser/Thr 19 as substrate at 10 uM incubated for 60 mins by Z'-Lyte assay relative to control
[13] = molecular target: Insulin receptor (Homo sapiens) (UniProt P06213); test: Inhibition of recombinant human GST-tagged InsR (1011 to 1382 residues) expressed in baculovirus expression system using Tyr 01 as substrate at 10 uM incubated for 60 mins by Z'-lyte assay relative to control
[14] = molecular target: Dual specificity tyrosine-phosphorylation-regulated kinase 3 (Homo sapiens) (UniProt O43781); test: Inhibition of recombinant human GST-tagged full length DYRK3 expressed in baculovirus expression system using Ser/Thr 9 as substrate at 10 uM incubated for 60 mins by Z'-Lyte assay relative to control
[15] = Oral bioavailability in Sprague-Dawley rat at 2 mg/kg; format: ADME, organism-based; conditions: in vivo
[16] = molecular target: Ribosomal protein S6 kinase beta-1 (Homo sapiens) (UniProt P23443); test: Inhibition of recombinant human GST-tagged p70S6K (1 to 421 residues) expressed in baculovirus expression system using Ser/Thr 07 as substrate at 10 uM incubated for 60 mins by Z'-Lyte assay relative to control
[17] = molecular target: cGMP-dependent protein kinase 1 (Homo sapiens) (UniProt Q13976); test: Inhibition of recombinant human GST-tagged full length […] expressed in baculovirus expression system using Ser/Thr 01 as substrate at 10 uM incubated for 60 mins by Z'-lyte assay relative to control
[18] = molecular target: Serine/threonine-protein kinase 33 (Homo sapiens) (UniProt Q9BYT3); test: Inhibition of tracer 236 binding to recombinant human His-tagged full length STK33 expressed in baculovirus expression system at 10 uM incubated for 60 mins by Lanthascreen assay relative to control
[19] = molecular target: Serine/threonine-protein kinase SIK2 (Homo sapiens) (UniProt Q9H0K1); test: Inhibition of SIK2 (unknown origin) by selectscreen kinase assay; conditions: dose 10.0 µM, time 60.0 min
[20] = molecular target: Aurora kinase B (Homo sapiens) (UniProt Q96GD4); test: Inhibition of recombinant human His-tagged full length Aurora B expressed in baculovirus expression system using Ser/Thr 01 as substrate at 10 uM incubated for 60 mins by Z'-Lyte assay relative to control
Chain of Aurora kinase B (Homo sapiens) (Q96GD4 whole entry): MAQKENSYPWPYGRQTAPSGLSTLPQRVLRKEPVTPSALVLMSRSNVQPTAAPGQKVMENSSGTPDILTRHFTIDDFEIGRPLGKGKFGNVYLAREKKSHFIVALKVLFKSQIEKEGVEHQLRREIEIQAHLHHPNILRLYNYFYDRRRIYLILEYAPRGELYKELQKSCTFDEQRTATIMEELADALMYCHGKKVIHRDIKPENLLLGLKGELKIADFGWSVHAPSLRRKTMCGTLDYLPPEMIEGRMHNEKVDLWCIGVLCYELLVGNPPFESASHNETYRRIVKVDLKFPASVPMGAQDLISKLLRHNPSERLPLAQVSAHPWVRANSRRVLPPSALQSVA

Chain of Serine/threonine-protein kinase 33 (Homo sapiens) (Q9BYT3 whole entry, looked up): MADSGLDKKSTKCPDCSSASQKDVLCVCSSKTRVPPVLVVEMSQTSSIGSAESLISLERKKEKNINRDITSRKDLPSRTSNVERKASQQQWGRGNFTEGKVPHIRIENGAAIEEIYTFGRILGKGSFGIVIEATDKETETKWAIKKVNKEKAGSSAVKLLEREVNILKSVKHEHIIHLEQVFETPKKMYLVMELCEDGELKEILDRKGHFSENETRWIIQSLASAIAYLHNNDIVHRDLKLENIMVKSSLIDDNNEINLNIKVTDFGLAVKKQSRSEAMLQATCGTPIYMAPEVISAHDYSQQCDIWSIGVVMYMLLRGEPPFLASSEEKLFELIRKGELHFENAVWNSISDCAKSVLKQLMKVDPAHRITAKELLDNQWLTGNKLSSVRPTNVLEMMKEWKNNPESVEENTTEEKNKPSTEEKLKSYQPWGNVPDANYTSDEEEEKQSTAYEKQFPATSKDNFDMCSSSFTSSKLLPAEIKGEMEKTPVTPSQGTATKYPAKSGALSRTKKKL
Chain of Proto-oncogene tyrosine-protein kinase Src (Homo sapiens) (P12931 2-536 limits assumed): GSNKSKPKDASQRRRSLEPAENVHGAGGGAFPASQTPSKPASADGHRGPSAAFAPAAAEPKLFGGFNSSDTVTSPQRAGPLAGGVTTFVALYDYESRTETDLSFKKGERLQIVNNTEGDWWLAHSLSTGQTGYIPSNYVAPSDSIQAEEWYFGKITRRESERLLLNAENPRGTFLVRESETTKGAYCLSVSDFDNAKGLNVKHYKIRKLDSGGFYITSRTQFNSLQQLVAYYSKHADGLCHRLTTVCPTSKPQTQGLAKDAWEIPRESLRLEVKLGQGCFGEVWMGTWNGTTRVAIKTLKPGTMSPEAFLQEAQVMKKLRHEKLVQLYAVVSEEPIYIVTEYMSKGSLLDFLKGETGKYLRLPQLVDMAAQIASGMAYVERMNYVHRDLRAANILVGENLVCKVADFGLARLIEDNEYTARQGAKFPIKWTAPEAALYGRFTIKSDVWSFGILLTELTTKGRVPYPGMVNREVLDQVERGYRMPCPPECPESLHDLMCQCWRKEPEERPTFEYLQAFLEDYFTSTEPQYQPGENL
Chain of Ribosomal protein S6 kinase beta-1 (Homo sapiens) (P23443 whole entry, looked up, the tested form may be a part): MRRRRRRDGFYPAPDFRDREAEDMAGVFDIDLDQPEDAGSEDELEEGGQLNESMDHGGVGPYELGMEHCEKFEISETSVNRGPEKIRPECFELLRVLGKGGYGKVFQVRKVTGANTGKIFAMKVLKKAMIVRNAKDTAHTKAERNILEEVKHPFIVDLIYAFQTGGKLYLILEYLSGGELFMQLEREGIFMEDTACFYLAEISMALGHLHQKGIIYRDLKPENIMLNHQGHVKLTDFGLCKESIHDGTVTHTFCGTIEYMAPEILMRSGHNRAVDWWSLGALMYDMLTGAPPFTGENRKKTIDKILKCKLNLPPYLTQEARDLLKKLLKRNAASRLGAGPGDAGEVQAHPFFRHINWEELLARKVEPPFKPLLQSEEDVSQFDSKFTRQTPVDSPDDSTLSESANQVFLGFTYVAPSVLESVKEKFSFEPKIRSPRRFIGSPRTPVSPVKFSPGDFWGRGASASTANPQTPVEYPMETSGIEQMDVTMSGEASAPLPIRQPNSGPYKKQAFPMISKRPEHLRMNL
Chain of Dual specificity tyrosine-phosphorylation-regulated kinase 3 (Homo sapiens) (O43781 whole entry): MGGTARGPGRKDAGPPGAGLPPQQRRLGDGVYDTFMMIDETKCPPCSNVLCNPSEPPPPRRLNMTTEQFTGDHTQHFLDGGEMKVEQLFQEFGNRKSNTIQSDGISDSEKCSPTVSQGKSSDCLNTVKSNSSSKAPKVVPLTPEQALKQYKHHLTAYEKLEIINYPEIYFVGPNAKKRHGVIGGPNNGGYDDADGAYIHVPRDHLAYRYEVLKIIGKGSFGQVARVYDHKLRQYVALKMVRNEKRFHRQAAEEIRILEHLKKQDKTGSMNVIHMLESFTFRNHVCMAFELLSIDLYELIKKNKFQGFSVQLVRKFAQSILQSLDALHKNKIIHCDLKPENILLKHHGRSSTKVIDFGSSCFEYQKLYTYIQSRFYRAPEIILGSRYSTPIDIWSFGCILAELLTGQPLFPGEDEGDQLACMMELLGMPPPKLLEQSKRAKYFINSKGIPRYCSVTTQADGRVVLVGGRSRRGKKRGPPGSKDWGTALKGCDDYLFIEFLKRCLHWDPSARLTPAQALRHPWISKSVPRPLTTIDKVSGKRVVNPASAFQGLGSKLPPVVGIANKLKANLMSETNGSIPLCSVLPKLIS
Chain of Serine/threonine-protein kinase SIK2 (Homo sapiens) (Q9H0K1 whole entry, looked up): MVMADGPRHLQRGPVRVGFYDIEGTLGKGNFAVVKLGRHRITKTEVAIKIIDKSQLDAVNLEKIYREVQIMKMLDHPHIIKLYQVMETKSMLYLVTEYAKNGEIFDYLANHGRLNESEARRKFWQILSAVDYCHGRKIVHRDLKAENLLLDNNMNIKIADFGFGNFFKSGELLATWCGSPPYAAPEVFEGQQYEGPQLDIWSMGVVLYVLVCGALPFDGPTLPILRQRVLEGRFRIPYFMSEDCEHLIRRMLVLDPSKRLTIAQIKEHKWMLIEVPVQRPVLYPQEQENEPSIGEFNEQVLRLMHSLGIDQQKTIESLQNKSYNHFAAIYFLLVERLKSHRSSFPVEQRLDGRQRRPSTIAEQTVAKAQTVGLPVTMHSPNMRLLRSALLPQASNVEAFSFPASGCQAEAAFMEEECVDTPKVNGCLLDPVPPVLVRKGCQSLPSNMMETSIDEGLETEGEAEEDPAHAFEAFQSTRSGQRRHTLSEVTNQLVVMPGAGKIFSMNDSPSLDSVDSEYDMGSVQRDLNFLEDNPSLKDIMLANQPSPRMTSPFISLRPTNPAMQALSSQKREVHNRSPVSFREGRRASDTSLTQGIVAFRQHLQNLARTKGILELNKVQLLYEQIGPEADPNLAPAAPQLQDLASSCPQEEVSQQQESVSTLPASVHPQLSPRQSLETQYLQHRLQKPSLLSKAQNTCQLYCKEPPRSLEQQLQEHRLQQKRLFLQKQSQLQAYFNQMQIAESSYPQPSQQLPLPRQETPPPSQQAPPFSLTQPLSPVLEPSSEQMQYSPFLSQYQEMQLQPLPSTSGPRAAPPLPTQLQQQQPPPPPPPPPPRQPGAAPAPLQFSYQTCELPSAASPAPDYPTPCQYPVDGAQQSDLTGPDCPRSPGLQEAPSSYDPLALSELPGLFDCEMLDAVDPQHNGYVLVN
Chain of Dual specificity protein kinase CLK1 (Homo sapiens) (P49759 whole entry, looked up, the tested form may be a part): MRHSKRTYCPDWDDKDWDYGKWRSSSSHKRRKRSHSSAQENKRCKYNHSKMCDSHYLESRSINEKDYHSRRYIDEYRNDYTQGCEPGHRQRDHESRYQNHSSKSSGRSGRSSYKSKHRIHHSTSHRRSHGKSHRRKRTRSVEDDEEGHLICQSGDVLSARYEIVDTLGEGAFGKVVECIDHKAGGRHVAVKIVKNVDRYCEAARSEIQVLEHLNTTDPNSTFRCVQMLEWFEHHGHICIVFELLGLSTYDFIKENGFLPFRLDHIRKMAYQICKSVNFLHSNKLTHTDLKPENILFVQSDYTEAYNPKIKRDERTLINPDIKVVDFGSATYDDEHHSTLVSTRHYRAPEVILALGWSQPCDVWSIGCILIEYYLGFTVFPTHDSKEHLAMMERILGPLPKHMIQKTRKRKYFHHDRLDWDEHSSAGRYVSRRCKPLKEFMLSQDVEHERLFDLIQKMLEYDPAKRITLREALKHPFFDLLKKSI
Chain of Activin receptor type-1B (Homo sapiens) (P36896 whole entry, the tested form may be a part): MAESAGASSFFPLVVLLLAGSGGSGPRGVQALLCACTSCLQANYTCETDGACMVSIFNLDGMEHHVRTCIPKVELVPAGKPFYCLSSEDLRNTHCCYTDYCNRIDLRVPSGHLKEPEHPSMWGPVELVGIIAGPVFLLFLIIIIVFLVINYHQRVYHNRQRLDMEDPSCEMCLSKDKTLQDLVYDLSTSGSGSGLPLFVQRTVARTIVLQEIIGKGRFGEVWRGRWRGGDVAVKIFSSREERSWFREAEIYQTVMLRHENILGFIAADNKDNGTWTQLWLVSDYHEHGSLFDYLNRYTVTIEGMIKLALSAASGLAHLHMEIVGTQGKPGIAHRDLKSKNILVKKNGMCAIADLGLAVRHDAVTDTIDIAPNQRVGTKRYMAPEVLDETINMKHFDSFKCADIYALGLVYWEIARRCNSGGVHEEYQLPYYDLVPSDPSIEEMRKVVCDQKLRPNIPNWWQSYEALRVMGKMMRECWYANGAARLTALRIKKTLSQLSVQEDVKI
Chain of Protein-tyrosine kinase 6 (Homo sapiens) (Q13882 whole entry, looked up): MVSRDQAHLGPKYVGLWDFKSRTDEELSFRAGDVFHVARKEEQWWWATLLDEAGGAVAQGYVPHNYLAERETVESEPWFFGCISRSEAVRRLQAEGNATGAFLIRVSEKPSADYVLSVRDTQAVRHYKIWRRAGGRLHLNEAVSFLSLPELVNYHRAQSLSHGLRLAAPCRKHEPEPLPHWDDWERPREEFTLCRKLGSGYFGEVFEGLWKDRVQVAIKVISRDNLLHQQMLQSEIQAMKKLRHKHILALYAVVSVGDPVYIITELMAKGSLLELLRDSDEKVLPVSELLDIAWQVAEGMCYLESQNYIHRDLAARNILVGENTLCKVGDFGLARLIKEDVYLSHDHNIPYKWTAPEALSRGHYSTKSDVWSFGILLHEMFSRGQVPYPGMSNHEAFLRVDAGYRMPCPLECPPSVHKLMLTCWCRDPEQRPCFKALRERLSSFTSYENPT

CN1C(=O)[C@@H](NC(=O)c2n[nH]c3ncc(C(F)(F)C(F)(F)F)cc23)COc2ccccc21
inhibition [1]: 0.5%
inhibition [2]: 5%
inhibition [3]: 5.5%
inhibition [4]: 2%
inhibition [5]: 3.5%
inhibition [6]: 7%
inhibition [7]: 17%
inhibition [8]: -1%
inhibition [9]: -1.5%
Ki [10]: 6 nM
inhibition [11]: 4.5%
inhibition [12]: -1%
inhibition [13]: 6%
inhibition [14]: 7%
bioavailability [15]: 63%
inhibition [16]: 6.5%
inhibition [17]: 0.5%
inhibition [18]: 1%
inhibition [19]: 3%
inhibition [20]: 2.5%
